Experimental findings from ChEMBL document CHEMBL5523701, “Structure-based discovery of small molecule inhibitors of FKBP51-Hsp90 protein-protein interaction” (Eur J Med Chem, 2024) are described below.

For assay [1], the target named is T1, Mitochondrial import receptor subunit TOM34 (Homo sapiens, UniProt Q15785).
T1 sequence (Q15785 whole entry): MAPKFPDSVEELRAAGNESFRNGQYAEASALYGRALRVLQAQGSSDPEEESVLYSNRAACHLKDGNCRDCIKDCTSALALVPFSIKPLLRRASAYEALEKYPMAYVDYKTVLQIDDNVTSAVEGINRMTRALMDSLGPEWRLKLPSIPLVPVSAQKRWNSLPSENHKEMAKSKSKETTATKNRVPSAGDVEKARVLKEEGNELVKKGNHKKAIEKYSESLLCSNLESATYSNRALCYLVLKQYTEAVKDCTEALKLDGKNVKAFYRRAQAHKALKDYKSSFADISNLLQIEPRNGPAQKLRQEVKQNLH
The experiment in a line: Inhibition of GST-tagged human TOM34 expressed in Escherichia coli BL21 (DE3) using NH2-EDASRMEEVD-COOH peptide as substrate preincubated for 15 mins followed by substrate addition measured after 15 mins by Alpha Screen assay. (Alpha assays give light when donor and acceptor beads are brought close together.)

The target of assay [2] is T2, Peptidyl-prolyl cis-trans isomerase FKBP4 (Homo sapiens, UniProt Q02790).
T2 sequence (Q02790 whole entry): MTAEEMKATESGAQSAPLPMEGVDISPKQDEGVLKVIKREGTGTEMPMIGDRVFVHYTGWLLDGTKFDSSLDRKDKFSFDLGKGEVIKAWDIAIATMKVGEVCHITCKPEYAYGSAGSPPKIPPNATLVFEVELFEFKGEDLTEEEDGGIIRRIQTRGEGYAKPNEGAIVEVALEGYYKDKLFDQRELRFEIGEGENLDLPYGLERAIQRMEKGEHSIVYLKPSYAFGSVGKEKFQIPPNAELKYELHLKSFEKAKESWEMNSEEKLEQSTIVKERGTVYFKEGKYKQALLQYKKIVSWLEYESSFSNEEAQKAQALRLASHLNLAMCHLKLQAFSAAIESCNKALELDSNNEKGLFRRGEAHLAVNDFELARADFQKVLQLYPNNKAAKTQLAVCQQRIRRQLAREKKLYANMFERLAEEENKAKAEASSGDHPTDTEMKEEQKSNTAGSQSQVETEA
The experiment in a line: Inhibition of GST-tagged human FKBP52 expressed in Escherichia coli BL21 (DE3) using NH2-EDASRMEEVD-COOH peptide as substrate preincubated for 15 mins followed by substrate addition measured after 15 mins by Alpha Screen assay.

Assay [3] concerns the target T3, AH receptor-interacting protein (Homo sapiens, UniProt O00170).
T3 sequence (O00170 whole entry): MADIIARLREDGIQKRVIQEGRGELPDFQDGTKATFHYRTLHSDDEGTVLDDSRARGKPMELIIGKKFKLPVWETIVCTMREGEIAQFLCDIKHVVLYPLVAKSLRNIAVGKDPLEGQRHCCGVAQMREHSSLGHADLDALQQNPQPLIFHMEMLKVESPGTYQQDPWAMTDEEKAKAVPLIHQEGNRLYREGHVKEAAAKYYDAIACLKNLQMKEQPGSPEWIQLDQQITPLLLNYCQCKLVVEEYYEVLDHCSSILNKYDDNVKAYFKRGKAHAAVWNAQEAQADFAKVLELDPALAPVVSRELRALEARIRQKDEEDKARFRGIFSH
Kind of assay: Inhibition of GST-tagged human AIP expressed in Escherichia coli BL21 (DE3) using NH2-EDASRMEEVD-COOH peptide as substrate preincubated for 15 mins followed by substrate addition measured after 15 mins by Alpha Screen assay.

Assay [4] addresses T4, DnaJ homolog subfamily C member 7 (Homo sapiens, UniProt Q99615).
T4 sequence (Q99615 whole entry): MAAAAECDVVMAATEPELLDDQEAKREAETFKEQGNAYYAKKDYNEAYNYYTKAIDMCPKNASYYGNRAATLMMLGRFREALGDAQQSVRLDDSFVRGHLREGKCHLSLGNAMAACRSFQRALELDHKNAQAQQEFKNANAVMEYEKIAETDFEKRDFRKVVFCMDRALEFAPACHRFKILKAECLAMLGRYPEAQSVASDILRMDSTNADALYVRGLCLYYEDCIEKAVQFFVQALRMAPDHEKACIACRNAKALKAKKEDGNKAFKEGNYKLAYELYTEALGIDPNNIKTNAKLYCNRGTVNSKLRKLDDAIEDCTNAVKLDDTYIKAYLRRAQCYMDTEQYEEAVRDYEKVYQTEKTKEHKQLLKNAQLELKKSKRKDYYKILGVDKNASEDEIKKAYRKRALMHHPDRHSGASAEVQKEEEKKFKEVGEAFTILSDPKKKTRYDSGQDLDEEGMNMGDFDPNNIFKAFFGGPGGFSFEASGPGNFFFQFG
Kind of assay: Inhibition of GST-tagged human DNAJC7 expressed in Escherichia coli BL21 (DE3) using NH2-EDASRMEEVD-COOH peptide as substrate preincubated for 15 mins followed by substrate addition measured after 15 mins by Alpha Screen assay.

The target in assay [5] is Stress-induced-phosphoprotein 1 (Homo sapiens, UniProt P31948). Kind of assay: Inhibition of GST-tagged human HOP expressed in Escherichia coli BL21 (DE3) using NH2-EDASRMEEVD-COOH peptide as substrate preincubated for 15 mins followed by substrate addition measured after 15 mins by Alpha Screen assay.
The target in assay [6] is T5, E3 ubiquitin-protein ligase CHIP (Homo sapiens, UniProt Q9UNE7).
T5 sequence (Q9UNE7 whole entry): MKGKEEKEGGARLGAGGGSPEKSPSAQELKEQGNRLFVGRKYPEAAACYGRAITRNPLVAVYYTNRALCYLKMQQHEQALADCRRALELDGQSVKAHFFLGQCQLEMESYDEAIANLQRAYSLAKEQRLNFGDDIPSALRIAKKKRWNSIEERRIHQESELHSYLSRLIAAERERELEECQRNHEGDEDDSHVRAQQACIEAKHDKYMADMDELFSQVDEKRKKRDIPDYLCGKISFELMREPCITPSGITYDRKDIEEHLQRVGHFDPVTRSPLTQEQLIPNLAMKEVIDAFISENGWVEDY
The experiment in a line: Inhibition of GST-tagged human CHIP expressed in Escherichia coli BL21 (DE3) using NH2-EDASRMEEVD-COOH peptide as substrate preincubated for 15 mins followed by substrate addition measured after 15 mins by Alpha Screen assay.

In assay [7] the target is Small glutamine-rich tetratricopeptide repeat-containing protein alpha (Homo sapiens, UniProt O43765). Kind of assay: Inhibition of GST-tagged human SGTA expressed in Escherichia coli BL21 (DE3) using NH2-EDASRMEEVD-COOH peptide as substrate preincubated for 15 mins followed by substrate addition measured after 15 mins by Alpha Screen assay.

Each structure is given as a SMILES string.

Chain of Stress-induced-phosphoprotein 1 (P31948 whole entry): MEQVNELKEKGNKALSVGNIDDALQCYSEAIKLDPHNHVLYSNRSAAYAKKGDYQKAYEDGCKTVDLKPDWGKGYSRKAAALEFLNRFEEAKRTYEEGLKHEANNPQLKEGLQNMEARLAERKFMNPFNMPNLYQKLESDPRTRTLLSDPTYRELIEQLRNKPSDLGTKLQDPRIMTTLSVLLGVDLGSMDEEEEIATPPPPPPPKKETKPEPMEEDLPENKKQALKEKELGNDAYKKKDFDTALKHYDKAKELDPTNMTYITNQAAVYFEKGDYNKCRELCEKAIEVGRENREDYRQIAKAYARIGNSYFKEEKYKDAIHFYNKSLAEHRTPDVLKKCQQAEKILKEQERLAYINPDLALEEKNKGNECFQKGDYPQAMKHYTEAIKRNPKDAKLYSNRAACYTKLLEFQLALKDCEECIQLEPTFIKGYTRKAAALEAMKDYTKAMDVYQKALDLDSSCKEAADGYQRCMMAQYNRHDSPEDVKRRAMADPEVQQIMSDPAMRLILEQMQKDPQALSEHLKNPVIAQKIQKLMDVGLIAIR
Chain of Small glutamine-rich tetratricopeptide repeat-containing protein alpha (O43765 whole entry): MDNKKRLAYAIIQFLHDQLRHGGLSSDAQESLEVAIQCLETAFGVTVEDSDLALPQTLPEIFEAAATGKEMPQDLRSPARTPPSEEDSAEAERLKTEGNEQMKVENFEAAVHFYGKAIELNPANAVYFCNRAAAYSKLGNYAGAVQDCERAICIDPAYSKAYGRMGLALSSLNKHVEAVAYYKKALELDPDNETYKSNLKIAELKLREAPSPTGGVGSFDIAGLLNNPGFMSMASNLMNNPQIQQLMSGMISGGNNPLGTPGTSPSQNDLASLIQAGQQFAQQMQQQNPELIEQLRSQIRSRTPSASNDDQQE

For the compound `Cc1sc(NC(=O)CCCC(=O)Nc2sc(C)c(C)c2C(N)=O)c(C(N)=O)c1C`, the IC50 amounted to 3 µM in assay [1]; 5 µM in assay [2]; 7 µM in assay [3]; 2 µM in assay [4]; 10 µM in assay [5]; 2.5 µM in assay [6]. For the same compound, the IC50 in assay [7] was 2 µM.
As to `COC(=O)c1c(NC(=O)CSc2nnc(-c3ccco3)c(-c3ccco3)n2)sc(C)c1C`, the IC50 in assay [1] was 4 µM; in assay [2], 3 µM; in assay [3] it was 6 µM; in assay [4], 4 µM; in assay [5] it was 5 µM; in assay [6], 2.5 µM. For the same compound, the IC50 in assay [7] is 6 µM.

The term IC50 denotes the midpoint of a concentration-inhibition curve. A low value points to higher potency.
